From patent US20030225152A1, “3-(Arylamino)methylene-1, 3-dihydro-2h-indol-2-ones as kinase inhibitors” (priority 2001, published 2003)

Columns and labels:
[1] = test system: VEGF induced increases in intracellular calcium levels in HUVEC (human umbilical vein endothelial cells); test: VEGF Stimulated Ca++ Signal in vitro (FLIPR); assay type: cell-based; conditions: VEGF 5 ng/mL; for IC50: 0.01 to 10.0 μM
How it was run: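 HUVEC loaded with Fluo-4 (45 min, 37° C.), washed, then pre-incubated 30 min with compound (10 μM single dose or 0.01–10.0 μM; 0.1% DMSO) before 5 ng/mL VEGF. Fluorescence at 516 nm read by FLIPR; IC50 from % inhibition of max-min VEGF response.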

[2] = test system: VEGF-induced EBD extravasation; test: VEGF-induced Dermal Extravasation in Guinea Pig (Miles Assay); assay type: in vivo
Protocol: VEGF-induced Dermal Extravasation in Guinea Pig (Miles Assay). Male Hartley guinea pigs (300-600 g) were anesthetized with isofluorane, sheared, and given a single dose of drug or the respective vehicle. The guinea pigs were dosed orally unless indicated otherwise in Table 3. Ten minutes prior to the end of drug treatment, guinea pigs were anesthetized with isofluorane, and 0.5% Evans blue dye (EBD) in PBS (13-15 mg/kg dose of EBD) was injected intravenously. After 5 minutes, triplicate intradermal injections of 100 ng rhVEGF165 in 100 μl PBS and of 100 μl PBS alone were administered on the flank. After 20 minutes, each animal was euthanized with Pentosol, and the skin containing the intradermal injection sites was removed for image analysis.
Using an analog video camera coupled to a PC, an image of each trans-illuminated skin sample was captured, and the integrated optical density of each injection site was measured using ImagePro 4. For each skin sample, the difference between the mean optical density of the VEGF sites and mean optical density of the PBS sites is the measure of VEGF-induced EBD extravasation in that animal. These measured values were averaged per study group to determine the mean VEGF-induced EBD extravasation for each experimental condition, and the group means were then compared to assess inhibition of VEGF-induced EBD extravasation in the drug-treated groups relative to the vehicle-treated controls.
To determine the dose required for 50% inhibition (ID50), the percent inhibition data was plotted as a function of oral dose, using the ‘best-fit’ analysis within MicroSoft Excel software. The ID50 value was verified visually by using the plotted data (horizontal line from 50% y value, at intersection with best-fit line drop vertical line to x axis (dose)).

[3] = target: T1, cytoplasmic domain of the human VEGF receptor (VEGFR-2) (Homo sapiens, UniProt P35968); test: KDR Assay; assay type: biochemical; conditions: His-VEGFR-2; 3.6 μM ATP
T1 construct: The cytoplasmic domain of the human VEGF receptor (VEGFR-2) was expressed as a Histidine-tagged fusion protein; Histidine tag
T1 sequence (P35968 786-1356): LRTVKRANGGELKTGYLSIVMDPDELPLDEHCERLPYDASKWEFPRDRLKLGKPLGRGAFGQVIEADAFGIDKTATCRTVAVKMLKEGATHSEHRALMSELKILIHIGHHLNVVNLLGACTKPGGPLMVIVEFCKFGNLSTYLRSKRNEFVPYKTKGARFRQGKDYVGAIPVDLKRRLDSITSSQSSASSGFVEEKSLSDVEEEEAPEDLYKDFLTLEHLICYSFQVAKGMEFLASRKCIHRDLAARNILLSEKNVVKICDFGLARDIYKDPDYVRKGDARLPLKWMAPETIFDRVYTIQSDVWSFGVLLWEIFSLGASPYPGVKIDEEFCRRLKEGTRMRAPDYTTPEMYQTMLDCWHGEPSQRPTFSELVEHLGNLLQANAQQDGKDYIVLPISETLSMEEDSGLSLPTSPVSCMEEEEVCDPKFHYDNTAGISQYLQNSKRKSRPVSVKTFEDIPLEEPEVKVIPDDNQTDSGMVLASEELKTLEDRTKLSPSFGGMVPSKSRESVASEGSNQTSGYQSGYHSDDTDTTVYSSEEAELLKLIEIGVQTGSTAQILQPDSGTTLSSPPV
How it was run: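 His-tagged human VEGFR-2 cytoplasmic domain from baculovirus-infected insect cells, acting on poly-Glu-Tyr (4:1)-coated plates with 3.6 μM ATP in Hepes pH 7.4 with MgCl2/MnCl2 and 5% final DMSO, 10 min at 25 °C. Phosphotyrosine detected by peroxidase-conjugated antibody ELISA at 492 nm; IC50 from blank-subtracted OD versus concentration.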

SMILES | IC50 [3] [nM] | IC50 [1] [nM] | inhibition at 10 µM ([1]; Homo sapiens) [%] | IC50 ([1]; Homo sapiens) [nM] | Miles Assay % inhibition ([2]; 75 mg/kg, PEG400, oral) [%] | Miles Assay % inhibition ([2]; 75 mg/kg, corn oil, oral) [%] | Miles Assay % inhibition ([2]; 40 mg/kg, corn oil, oral) [%]
CN(C)c1ccc(NC=C2C(=O)Nc3ccccc32)cc1 [Example 156, 3-[(4-Dimethylamino-phenylamino)-methylene]-1,3-dihydro-indol-2-one] | 510 | 830 | 95.4 | ≤ 1000 | 100 |  | 
CN1CCN(c2ccc(NC=C3C(=O)Nc4ccccc43)cc2)CC1 [Example 157, 3-{[4-(4-Methyl-piperazin-1-yl)-phenylamino]-methylenel}-1,3-dihydro-indol-2-one] | 250 |  | 97.9 |  | 38 |  | 
O=C1Nc2ccc(F)cc2C1=CNc1ccc(N2CCOCC2)cc1 [Example 167, 5-Fluoro-3-[(4-morpholin-4-yl-phenylamino)-methylene]-1,3-dihydro-indol-2-one] | 190 |  | 95.7 |  | 31 |  | 
O=C1Nc2cc(F)ccc2C1=CNc1ccc(OCCCCN2CCCCC2)cc1 [Example 247, 6-Fluoro-3-{[4-(4-piperidin-1-yl-butoxy)-phenylamino]-methylene}-1,3-dihydro-indol-2-one] | 200 |  |  |  |  | 45 | 
CCN(CC)CCCOc1ccc(NC=C2C(=O)Nc3cccc(C)c32)cc1F [Example 249, 3-{[4-(3-Diethylamino-propoxy)-3-fluoro-phenylamino]-methylene}-4-methyl-1,3-dihydro-indol-2-one] | 70 |  |  |  |  | 29 | 
CCN(CC)CCCOc1ccc(NC=C2C(=O)Nc3cc(F)ccc32)cc1F [Example 250, 3-{[4-(3-Diethylamino-propoxy)-3-fluoro-phenylamino]-methylene}-6-fluoro-1,3-dihydro-indol-2-one] | 150 |  |  |  |  | 62 | 
O=C1Nc2cccc(F)c2C1=CNc1ccc(OCCN2CCCCC2)cc1 [Example 261, 4-Fluoro-3-{[4-(2-piperidin-1-yl-ethoxy)-phenylamino]-methylene}-1,3-dihydro-indol-2-one] | 390 |  |  | 1060 |  |  | 
O=C1Nc2ccc(Cl)cc2C1=CNc1ccc(OCCN2CCCCC2)cc1 [Example 262, 5-Chloro-3-{[4-(2-piperidin-1-yl-ethoxy)-phenylamino]-methylene}-1,3-dihydro-indol-2-one] | 210 | 870 |  | ≤ 1000 |  |  | 
CCN(CC)CCOc1ccc(NC=C2C(=O)Nc3ccccc32)cc1 [Example 265, 3-{[4-(2-Diethylamino-ethoxy)-phenylamino]-methylene}-1,3-dihydro-indol-2-one] | 610 | 530 |  | ≤ 1000 |  |  | 
CCN(CC)CCOc1ccc(NC=C2C(=O)Nc3cc(F)ccc32)cc1 [Example 266, 3-{[4-(2-Diethylamino-ethoxy)-phenylamino]-methylene}-6-fluoro-1,3-dihydro-indol-2-one] | 170 |  |  |  |  |  | 82
CCN(CC)CCCOc1ccc(NC=C2C(=O)Nc3cccc(F)c32)cc1F [Example 267, 3-{[4-(3-Diethylamino-propoxy)-3-fluoro-phenylamino]-methylene}-4-fluoro-1,3-dihydro-indol-2-one] | 230 |  |  | 1420 |  |  | 
COc1cccc(-c2ccc3c(c2)NC(=O)C3=CNc2ccc(N3CCN(C)CC3)cc2)c1 [Example 268, 6-(3-Methoxy-phenyl)-3-{[4-(4-methyl-piperazin-1-yl)-phenylamino]-methylene}-1,3-dihydro-indol-2-one] | 80 |  |  | ≥ 10000 |  |  | 
COc1cccc(-c2ccc3c(c2)NC(=O)C3=CNc2ccc(N3CCOCC3)cc2)c1 [Example 269, 6-(3-Methoxy-phenyl)-3-{[4-morpholin-4-yl-phenylamino)-methylene]-1,3-dihydro-indol-2-one] | 1680 |  |  | ≥ 10000 |  |  | 
O=C1Nc2cc(F)ccc2C1=CNc1ccc(OCCN2CCCC2)cc1 [Example 271, 6-Fluoro-3-{[4-(2-pyrrolidin-1-yl-ethoxy)-phenylamino]-methylene}-1,3-dihydro-indol-2-one] | 130 |  |  |  |  |  | 98
O=C1Nc2cccc(F)c2C1=CNc1ccc(OCCN2CCCC2)cc1 [Example 273, 4-Fluoro-3-{[4-(2-pyrrolidin-1-yl-ethoxy)-phenylamino]-methylene}-1,3-dihydro-indol-2-one] | 330 |  |  | 1070 |  |  | 
O=C1Nc2ccc(Cl)cc2C1=CNc1ccc(OCCN2CCCC2)cc1 [Example 275, 5-Chloro-3-{[4-(2-pyrrolidin-1-yl-ethoxy)-phenylamino]-methylene}-1,3-dihydro-indol-2-one] | 130 | 620 |  | ≤ 1000 |  |  | 

Continued, in another order:

IC50 [3] [nM] | SMILES | IC50 [1] [nM] | inhibition at 10 µM ([1]; Homo sapiens) [%] | IC50 ([1]; Homo sapiens) [nM] | Miles Assay % inhibition ([2]; 75 mg/kg, PEG400, oral) [%] | Miles Assay % inhibition ([2]; 75 mg/kg, corn oil, oral) [%] | Miles Assay % inhibition ([2]; 40 mg/kg, corn oil, oral) [%]
220 | COc1cccc(-c2ccc3c(c2)NC(=O)C3=CNc2ccc(OCCCN3CCCCC3)cc2)c1 [Example 276, 6-(3-Methoxy-phenyl)-3-{[4-(3-piperidin-1-yl-propoxy)-phenylamino]-methylene}-1,3-dihydro-indol-2-one] |  |  | 8810 |  |  | 
250 | CCN(CC)CCCOc1ccc(NC=C2C(=O)Nc3cc(-c4cccc(OC)c4)ccc32)cc1 [Example 277, 3-{[4-(3-Diethylamino-propoxy)-phenylamino]-methylene}-6-(3-Methoxy-phenyl)-1,3-dihydro-indol-2-one] |  |  | ≥ 10000 |  |  | 
320 | CN1CCCC(COc2ccc(NC=C3C(=O)Nc4cccc(F)c43)cc2)C1 (centres unmarked) [Example 281, 4-Fluoro-3-{[4-(1-methyl-piperidin-3-ylmethoxy)-phenylamino]-methylene}-1,3-dihydro-indol-2-one] | 730 |  | ≤ 1000 |  |  | 
150 | CN1CCCC(COc2ccc(NC=C3C(=O)Nc4ccc(Cl)cc43)cc2)C1 (centres unmarked) [Example 283, 5-Chloro-3-{[4-(1-methyl-piperidin-3-ylmethoxy)-phenylamino]-methylene}-1,3-dihydro-indol-2-one] | 940 |  | ≤ 1000 |  |  | 
110 | O=C1Nc2ccc(Cl)cc2C1=CNc1ccc(CCN2CCCCC2)cc1 [Example 285, 5-Chloro-3-{[4-(2-piperidin-1-yl-ethyl)-phenylamino]-methylene}-1,3-dihydro-indol-2-one] | 560 |  | ≤ 1000 |  |  | 
110 | O=C1Nc2cccc(F)c2C1=CNc1ccc(CCN2CCCCC2)cc1 [Example 287, 4-Fluoro-3-{[4-(2-piperidin-1-yl-ethyl)-phenylamino]-methylene}-1,3-dihydro-indol-2-one] | 620 |  | ≤ 1000 |  |  | 
210 | O=C1Nc2ccc(Cl)cc2C1=CNc1ccc(CN2CCOCC2)cc1 [Example 291, 5-Chloro-3-[(4-morpholin-4-ylmethyl-phenylamino)-methylene]-1,3-dihydro-indol-2-one] | 660 |  | ≤ 1000 |  |  | 
470 | O=C1Nc2cccc(F)c2C1=CNc1ccc(CN2CCOCC2)cc1 [Example 293, 4-Fluoro-3-[(4-morpholin-4-ylmethyl-phenylamino)-methylene]-1,3-dihydro-indol-2-one] | 880 |  | ≤ 1000 |  |  | 
270 | O=C1Nc2cccc(F)c2C1=CNc1ccc(NCCCN2CCOCC2)cc1 [Example 301, 4-Fluoro-3-{[4-(3-morpholin-4-yl-propylamino)-phenylamino]-methylene}-1,3-dihydro-indol-2-one] | 770 |  | ≤ 1000 |  |  | 
310 | O=C1Nc2ccccc2C1=CNc1ccc(OCCCN2CCC(F)C2)cc1 (centres unmarked) [Example 305, 3-({4-[3-(3-Fluoro-pyrrolidin-1-yl)-propoxy]-phenylamino}-methylene)-1,3-dihydro-indol-2-one] | 550 |  | ≤ 1000 |  |  | 
270 | O=C1Nc2ccc(Cl)cc2C1=CNc1ccc(CCN2CCOCC2)cc1 [Example 307, 5-Chloro-3-{[4-(2-morpholin-4-yl-ethyl)-phenylamino]-methylene}-1,3-dihydro-indol-2-one] | 650 |  | ≤ 1000 |  |  | 
230 | O=C1Nc2cccc(F)c2C1=CNc1ccc(CCN2CCOCC2)cc1 [Example 309, 4-Fluoro-3-{[4-(2-morpholin-4-yl-ethyl)-phenylamino]-methylene}-1,3-dihydro-indol-2-one] | 680 |  | ≤ 1000 |  |  | 
